SMILES strings stand for the structures. Several values for one entry are separate records, joined by “and”; a condition that tells them apart may be missing. Identical values can stand only once.

In the experiment the target is Nonstructural protein 3 (Zika virus, UniProt A0A024AXB9). Kind of experiment: Functional biochemical assay to identify treatments for viral infectious disease that targets Zika NS2B-NS3 protease. Utilizing a direct enzyme activity measurement method, reading the fluorescence intensity is used to characterize the relative potency of inhibitors as IC50. More on the design: species or system PRVABC59.
Sequence of Nonstructural protein 3 (A0A024AXB9 whole entry): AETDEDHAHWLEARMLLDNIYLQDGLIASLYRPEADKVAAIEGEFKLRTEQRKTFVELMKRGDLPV

In turn, `O=C1OCc2ccc(NC(=O)[C@H]3CCNC34CCCC4)cc21` returned an IC50 greater than 25 µM.
Turning to `O=C(Nc1ccc2c(c1)CNC2)c1cc(Cl)cc2nn[nH]c12`, it took 9.55 µM to reach half-maximal inhibition (IC50).
In turn, `O=C(Nc1ccc2c(c1)CNC2)c1ccc2[nH]ncc2c1` displayed an IC50 of 2.01 µM.
Then `O=C(Nc1ccc2c(c1)CNC2)c1cccc2[nH]c(C(F)(F)F)cc12`, with 0.046 µM and 0.043 µM.
On to `O=C(Nc1ccc2c(c1)CNC2)c1cc(Cl)cc2[nH]c(-c3ccnn3C3CC3)nc12`, for which the IC50 is 0.1 µM and 0.076 µM.
`CN1Cc2cc(NC(=O)c3cc(Cl)cc4[nH]ncc34)ccc2C1(C)C` had an IC50 of 7.29 µM.
Turning to `O=C(Nc1ccc2nc[nH]c2c1)c1cc(F)cc2[nH]ncc12`, the IC50 turned out to be 3.3 µM.
On to `CC(C)CCN1Cc2ccc(NC(=O)c3cc(Cl)cc4[nH]ncc34)cc2C1`, for which 3.39 µM corresponded to half-maximal inhibition (IC50).
`C=CC[C@H]1NCc2cc(NC(=O)c3cccc4c3CC(=O)N4)ccc21` had an IC50 of 1.15 µM.
`COc1ccc2[nH]cnc2c1S(=O)(=O)Nc1ccc2c(c1)CNC2` yielded an IC50 greater than 25 µM.
Molecule `O=C(Nc1ccc2c(c1)CNC2)c1ccc2c(c1)CCC2` yielded an IC50 of 11.7 µM.
With `O=C(Nc1ccc2c(c1)C(=O)OC2)c1cc(CC2CCNCC2)ccc1F`, the IC50 was greater than 25 µM.
Regarding `Clc1cc([C@@H]2C[C@H]2c2cccc(C3CCNCC3)c2)c2cn[nH]c2c1`, the IC50 was 4.53 µM and 7.81 µM.
Consider `Cc1nc(C2CC2)[nH]c1C(=O)Nc1cc(CCCN)ccn1`, for which the IC50 is greater than 25 µM.
`O=C1OCc2ccc(NC(=O)c3cccc4c3CNC4)cc21` gave an IC50 greater than 25 µM.
Turning to `NCc1ccccc1C(=O)Nc1ccc2c(c1)C(=O)OC2`, the IC50 was greater than 25 µM.
`O=C1OCc2ccc(NC(=O)[C@H]3CNC4(CCCC4)C3)cc21`: the IC50 is greater than 25 µM.
In turn, `O=C(Nc1ccc2c(c1)CNC2)c1cc(F)cc2[nH]cnc12` yielded an IC50 of 0.176 µM.
`O=C(Nc1ccc2c(c1)CNC2)c1nc(C(F)(F)F)cs1`: the IC50 was greater than 25 µM.
For the molecule `Cn1cc2c(C(=O)Nc3ccc4c(c3)CNC4)cc(F)cc2n1`, the IC50 was 0.107 µM.
The result for `O=C(Nc1ccc2c(c1)CNC2)c1cc(Br)cc2[nH]c([C@H]3CCCO3)nc12` reads 0.274 µM; that for `CN1C(=O)Cc2cc(C(=O)Nc3ccc4c(c3)CNC4)ccc21`, greater than 25 µM.
On to `C=CC[C@H]1NCc2cc(NC(=O)c3cc(Cl)cc4[nH]ncc34)ccc21`, for which the midpoint of inhibition, the IC50, lay at 0.449 µM.
Molecule `O=C(Nc1ccc2c(c1)CNC2)c1cccc2c1OCCN2` had an IC50 of 8.24 µM.
For the molecule `C[C@](N)(C(=O)Nc1ccc2c(c1)C(=O)OC2)c1cccs1`, the IC50 was greater than 25 µM.
Molecule `CC1(C)C(=O)N[C@H]2CCCN(C(=O)Nc3ccc4c(c3)CNC4)[C@H]21` came in with an IC50 greater than 25 µM.
The result for `O=C1C[C@H]2[C@H](CCCN2C(=O)Nc2ccc3c(c2)CNC3)N1` reads greater than 25 µM; that for `O=C(Nc1ccc2c(c1)S(=O)(=O)NC2)c1cc(Cl)cc2[nH]ncc12`, greater than 25 µM.
Then `O=C(Nc1ccc2c(c1)CNC2)N1CC[C@H](Oc2ccc(C3CC3)cn2)C1`, with greater than 25 µM; and `CCc1ccc(-c2nc3c(C(=O)Nc4ccc5c(c4)CNC5)cc(Cl)cc3[nH]2)cc1`, with 0.163 µM.
`O=C(Nc1ccc2c(c1)CNC2)N1CCC[C@H]1c1nc2ncccc2[nH]1` had an IC50 greater than 25 µM.
The molecule `O=C1NS(=O)(=O)c2ccc(NC(=O)c3cc(Cl)cc4[nH]ncc34)cc21` returned an IC50 greater than 25 µM.
Turning to `CC(C)(C)c1nc2c(C(=O)Nc3ccc4c(c3)CNC4)cc(Br)cc2[nH]1`, it took 0.328 µM to reach half-maximal inhibition (IC50).
Then `O=C(Nc1ccc2c(c1)CNC2)N1CCC[C@@H]1COCc1ccccc1`, with greater than 25 µM; and `CNC(=O)c1cccc(C(=O)Nc2ccc3c(c2)CNC3)c1`, with 0.87 µM; and `O=C(Nc1ccc2c(c1)CNC2)c1cccc(O)c1`, with 3.94 µM.
The result for `C#C[C@H](Nc1ccc2c(c1)CNC2)c1cccc2[nH]c(=O)[nH]c12` reads 7.05 µM.
Turning to `CCOCC1(c2nc3c(C(=O)Nc4ccc5c(c4)CNC5)cc(Cl)cc3[nH]2)CC1`, it took 0.199 µM to reach half-maximal inhibition (IC50).
On to `O=C(Nc1ccc2c(c1)CNC2)c1cc(Cl)cc2cc[nH]c12`, for which the IC50 is 0.07 µM and 0.065 µM.
With `O=C(Nc1ccc2c(c1)C(=O)OC2)c1cccc(CC2CNC2)c1`, the IC50 was greater than 25 µM.
`C=CC[C@H]1NCc2cc(NC(=O)c3cc(F)cc4[nH]ncc34)ccc21` returned an IC50 of 0.289 µM.
Molecule `O=C(Nc1ccc2c(c1)CNC2)c1cccc2[nH]ccc12` yielded an IC50 of 0.281 µM.
`O=C(Nc1cc([C@H]2CCOC2)ccn1)c1ccc2ncsc2c1` gave an IC50 greater than 25 µM.
In the case of `O=C1Cc2c(cc(F)cc2C(=O)Nc2ccc3c(c2)CNC3)N1`, the half-maximal inhibitory concentration (IC50) was 0.026 µM and 0.014 µM.
The result for `O=C1OCc2ccc(NC(=O)[C@H]3CCNC3)cc21` reads greater than 25 µM; that for `CC(C)NC(=O)[C@H](Nc1ccc2c(c1)CNC2)c1cc(F)cc2[nH]ncc12`, 14.4 µM.
In turn, `O=C(Nc1ccc2[nH]c(=O)[nH]c2c1)c1cc(F)cc2[nH]ncc12` had an IC50 greater than 25 µM.
Then `O=C(Nc1ccc2c(c1)CNC2)c1cc(Cl)ccc1-n1cnnn1`, with 1.05 µM.
`CN(C)C(=O)N1Cc2ccc(NC(=O)c3cc(Cl)cc4[nH]ncc34)cc2C1` showed an IC50 greater than 25 µM.
In the case of `CC(C)(C)NC(=O)[C@H](Nc1ccc2c(c1)CNC2)c1cc(Cl)cc2[nH]ncc12`, the IC50 was determined as 3.12 µM.
The molecule `O=C1OCc2ccc(NC(=O)[C@H]3CNCc4[nH]ncc43)cc21` had an IC50 greater than 25 µM.
Then `Cn1c(=O)[nH]c2c(C(=O)Nc3ccc4c(c3)CNC4)cc(Br)cc21`, with 0.034 µM and 0.022 µM; and `O=C(Nc1ccc2c(c1)CNC2)c1cc(Cl)cc2[nH]c(-c3cc(C4CC4)[nH]n3)nc12`, with 0.08 µM and 0.029 µM and 0.061 µM.
With `N#C[C@H](Nc1ccc2c(c1)CNC2)c1cccc2ncccc12`, the IC50 was found to be 7.26 µM.
In the case of `O=C(Nc1ccc2c(c1)CNC2)c1cc(F)cc2c1CCC2`, the IC50 is 0.099 µM and 0.09 µM.
The molecule `CC(C)Nc1c(-c2cc(Cl)cc3[nH]ncc23)nc2ccc3c(n12)CNC3` gave an IC50 greater than 25 µM.
As for `O=C(Nc1ccc2c(c1)CNC2)c1cc(Cl)cc2[nH]c(CCc3cccnc3)nc12`, the IC50 was 0.144 µM.
The result for `NC[C@H]1CC[C@@H](NC(=O)c2cc(Cl)cc3[nH]ncc23)CC1` reads 10.7 µM; that for `O=C(Nc1ccc2c(c1)CNC2)c1cc(Cl)cc(C(F)(F)F)n1`, 21 µM; that for `CC1(C)C[C@H](C(=O)Nc2ccc3c(c2)C(=O)OC3)CCN1`, greater than 25 µM.
In turn, `O=C(Nc1ccc2c(c1)CNC2)c1cccc2c1OCO2` had a half-maximal inhibitory concentration (IC50) of 2.87 µM.
Then `Cc1nnc(SC[C@H]2CCCN2C(=O)Nc2ccc3c(c2)CNC3)s1`, with 5.77 µM; and `O=C(Nc1ccc2c(c1)CNC2)c1cccc2nc(O)ccc12`, with 0.204 µM; and `C#C[C@H](Nc1ccc2c(c1)CNC2)c1cccc2c1CCNC2=O`, with greater than 25 µM.
The result for `O=C1Cc2cc(C(=O)Nc3ccc4c(c3)CNC4)c(Cl)cc2N1` reads greater than 25 µM; that for `Cc1nc2ccc(C(=O)Nc3ccc4c(c3)CNC4)cc2s1`, greater than 25 µM; that for `COCc1cc(Cl)cc(C(=O)Nc2ccc3c(c2)CNC3)c1`, 0.785 µM.
The result for `NCc1cc(CC(=O)O)cc([C@H]2C[C@@H]2c2cc(Cl)cc(NC(=O)OCc3ccccc3)c2)c1` reads greater than 25 µM; that for `CN(C)C(=O)CCCc1nc2c(C(=O)Nc3ccc4c(c3)CNC4)cc(Cl)cc2[nH]1`, 0.28 µM; that for `O=C(Nc1ccc2[nH]ncc2c1)c1cc(F)cc2[nH]ncc12`, greater than 25 µM.
With `O=C(Nc1ccc2c(c1)CNC2)c1nc(-c2ccccc2)cs1`, the IC50 is greater than 25 µM.
In the case of `O=C1Cc2ccc(NC(=O)c3cc(F)cc4[nH]ncc34)cc2N1`, the IC50 was greater than 25 µM.
`O=C(Nc1ccc2c(c1)CNC2)c1cc(Cl)cc(N2CCCC2=O)c1` registered an IC50 of 0.187 µM.
Then `COc1cc(Cl)cc(C(=O)Nc2ccc3c(c2)CNC3)c1`, with 0.26 µM; and `O=C1Cc2cc(C(=O)Nc3ccc4c(c3)CNC4)ccc2N1`, with 2.41 µM and 6.85 µM.
Then `CC(=O)N1Cc2ccc(NC(=O)c3cc(Cl)cc4[nH]ncc34)cc2C1`, with greater than 25 µM; and `COc1ncc(Cl)cc1C(=O)Nc1ccc2c(c1)CNC2`, with 2.58 µM.
Regarding `NCCC1(C(=O)Nc2ccc3c(c2)C(=O)OC3)CCCC1`, the IC50 is greater than 25 µM.
For the molecule `O=C(Nc1nc(O)c2c(n1)CNC2)c1cc(Cl)cc2[nH]ncc12`, the IC50 was found to be 8.43 µM.
In turn, `Clc1cccc([C@H](C#Cc2ccccc2)Nc2ccc3c(c2)CNC3)c1` gave an IC50 of 5.26 µM.
Molecule `O=C1CCCc2cc(C(=O)Nc3ccc4c(c3)CNC4)ccc2N1` returned an IC50 greater than 25 µM.
In the case of `O=C(Nc1ccc2c(c1)CNC2)c1cc(Cl)cc2nn(-c3ccccc3)nc12`, the IC50 is 0.372 µM and 3.47 µM.
Then `CCC[C@H](C)N1Cc2ccc(NC(=O)c3cc(Cl)cc4[nH]ncc34)cc2C1`, with 3.2 µM; and `O=C(Nc1ccc2c(c1)CNC2)c1cccc2cn[nH]c12`, with 0.207 µM and 0.615 µM; and `CO[C@]1(C(=O)Nc2ccc3c(c2)C(=O)OC3)CCCNC1`, with greater than 25 µM.
On to `O=C(Nc1cc2c(cc1Br)CNC2)c1cc(F)cc2[nH]ncc12`, for which the IC50 was 0.048 µM and 0.028 µM.
For the molecule `C[C@](C#N)(Nc1ccc2c(c1)CNC2)c1cccc(Cl)c1`, the IC50 was greater than 25 µM.
`C#Cc1cc(Cl)cc(C(=O)Nc2ccc3c(c2)CNC3)c1` displayed an IC50 of 0.268 µM.
Molecule `O=C1Cc2c(cc(Br)cc2C(=O)Nc2ccc3c(c2)C(=O)OC3)N1` gave an IC50 greater than 25 µM.
Take `O=C(Nc1ccc2c(c1)CNC2)c1cc(Cl)cc2ccccc12`: half-maximal inhibition (IC50) was put at 0.113 µM.
Then `O=C1CN(C(=O)Nc2ccc3c(c2)CNC3)[C@H]2CCCC[C@H]2N1`, with greater than 25 µM; and `O=C(Nc1ccc2c(c1)CNC2)N1CCC[C@H]1Cc1cc2ccccc2o1`, with greater than 25 µM; and `O=C(Nc1ccc2c(c1)CNC2)c1cc(Cl)cc2c1NCCC2`, with 0.151 µM.
The result for `Clc1cc([C@H](C#CC2CC2)Nc2ccc3c(c2)CNC3)c2cn[nH]c2c1` reads 1.35 µM; that for `O=C(Nc1ccc2c(c1)CNC2)c1cc(Cl)cc2[nH]c(-c3cnc(C4CC4)o3)nc12`, 0.05 µM and 0.027 µM; that for `O=C(Nc1ccc2c(c1)CNC2)c1cc(Cl)cc(N2CCCC2)c1`, 0.114 µM.
`CC(=O)Nc1cccc(C(=O)Nc2ccc3c(c2)CNC3)c1` showed an IC50 of 0.863 µM.

One may read the IC50 as the concentration that inhibits the measured activity by half. A lower IC50 goes with higher potency.

The values are drawn from ChEMBL document CHEMBL5604062, “ASAP - ZIKV NS2B-NS3 protease fluorescence dose response” (2024).
